Source: patent US5567692A, “9-[(substituted glycyl) amido)]-6-demethyl-6-deoxytetracyclines” (priority 1995, dated 1996)
In brackets after ≈: the same amount, converted by molar mass. Structures can show the parent of a compound that is named as a salt. Where two headings read alike, the source gives them in different places.

Assays:
Type in all cases: cell-based
E. coli #311 (MP) = assay: MIC, agar dilution; conditions: Escherichia coli, 18 h
E. coli UBMS 89-1 Tet M = assay: microbe, parasite or virus in culture; conditions: Escherichia coli, UBMS891TETM, 18 h
[1] = test system: S. aureus UBMS 90-2 Tet M; assay: microbe, parasite or virus in culture; conditions: Staphylococcus aureus, UBMS902TETM, 18 h
[2] = test system: Ps. aeruginosa ATCC 27853; assay: MIC, agar dilution; conditions: Pseudomonas aeruginosa, ATCC27853, 18 h
E. coli J2175 = assay: MIC, agar dilution; conditions: Escherichia coli, 18 h, read-out: MIC
S. aureus IVES 1983 = assay: MIC, agar dilution; conditions: Staphylococcus aureus, IVES1983, 18 h
[3] = test system: E. coli MC 4100 Tet sens.; assay: MIC, agar dilution; conditions: Escherichia coli, 18 h
S. aureus ATCC 29213 = assay: MIC, agar dilution; conditions: Staphylococcus aureus, ATCC29213, 18 h, S. aureus ATCC 29213
E. faecalis ATCC 29212 = assay: MIC, agar dilution; conditions: Enterococcus faecalis, ATCC29212, 18 h
E. coli UBMS 88-1 Tet B = assay: microbe, parasite or virus in culture; conditions: Escherichia coli, UBMS881TETB, 18 h
E. coli UBMS 90-5 = assay: microbe, parasite or virus in culture; conditions: Escherichia coli, UBMS905, 18 h, E. coli UBMS 90-5; read-out: MIC
E. coli BAJ9003 IMP MUT = assay: microbe, parasite or virus in culture; conditions: Escherichia coli, BAJ9003IMPMUT, 18 h
E. coli PRP1 Tet A = assay: microbe, parasite or virus in culture; conditions: Escherichia coli, PRP1TETA, 18 h
S. aureus ROSE (MP) = assay: MIC, agar dilution; conditions: Staphylococcus aureus, 18 h, read-out: MIC
S. aureus IVES 2943 = assay: MIC, agar dilution; conditions: Staphylococcus aureus, IVES2943, 18 h, S. aureus IVES 2943; read-out: MIC
[4] = test system: S. hemolyticus AVHAH 88-3; assay: MIC, agar dilution; conditions: Streptococcus pyogenes, AVHAH883, 18 h
[5] = test system: S. aureus UBMS 88-5 Tet M; assay: microbe, parasite or virus in culture; conditions: Staphylococcus aureus, UBMS885TETM, 18 h
S. aureus UBMS 90-3 = assay: MIC, agar dilution; conditions: Staphylococcus aureus, UBMS903, 18 h
[6] = test system: X. maltophilia NEMC 87210; assay: MIC, agar dilution; conditions: Stenotrophomonas maltophilia, NEMC87210, 18 h
[7] = test system: S. aureus UBMS 88-7 Tet K; assay: microbe, parasite or virus in culture; conditions: Staphylococcus aureus, UBMS887TETK, 18 h
S. aureus NEMC 8769 = assay: MIC, agar dilution; conditions: Staphylococcus aureus, NEMC8769, 18 h
E. coli J3272 Tet C = assay: microbe, parasite or virus in culture; conditions: Escherichia coli, J3272TETC, 18 h
E. coli J3272 Tet D = assay: microbe, parasite or virus in culture; conditions: Escherichia coli, J3272TETD, 18 h
[8] = test system: E. coli MC 4100 TNIOC Tet B; assay: microbe, parasite or virus in culture; conditions: Escherichia coli, 18 h
E. coli ATCC 25922 = assay: MIC, agar dilution; conditions: Escherichia coli, ATCC25922, 18 h
S. aureus SMITH (MP) = assay: MIC, agar dilution; conditions: Staphylococcus aureus, 18 h
[9] = test system: E. coli UBMS 89-2 Tet sens.; assay: MIC, agar dilution; conditions: Escherichia coli, 18 h
S. aureus UBMS 88-4 = assay: MIC, agar dilution; conditions: Staphylococcus aureus, UBMS884, 18 h
Enterococcus 12201 = assay: MIC, agar dilution; conditions: Enterococcus, 12201, 18 h
E. coli UBMS 90-4 Tet M = assay: microbe, parasite or virus in culture; conditions: Escherichia coli, UBMS904TETM, 18 h
[10] = test system: S. aureus UBMS 90-1 Tet M; assay: microbe, parasite or virus in culture; conditions: Staphylococcus aureus, UBMS901TETM, 18 h
S. marcescens FPOR 8733 = assay: MIC, agar dilution; conditions: Serratia marcescens, FPOR8733, 18 h

| Structure (SMILES) | MIC (E. coli UBMS 89-1 Tet M) [µg/mL] | MIC [1] [µg/mL] | MIC (E. coli J2175) [µg/mL] | MIC [3] [µg/mL] | MIC (S. aureus ATCC 29213) [µg/mL] | MIC (E. coli UBMS 88-1 Tet B) [µg/mL] | MIC (E. coli UBMS 90-5) [µg/mL] | MIC (E. coli BAJ9003 IMP MUT) [µg/mL] | MIC (E. coli PRP1 Tet A) [µg/mL] | MIC (S. aureus ROSE (MP)) [µg/mL] | MIC (S. aureus IVES 2943) [µg/mL] | MIC [5] [µg/mL] | MIC (S. aureus UBMS 90-3) [µg/mL] | MIC [6] [µg/mL] | MIC [7] [µg/mL] | MIC (S. aureus NEMC 8769) [µg/mL] | MIC (E. coli J3272 Tet C) [µg/mL] | MIC (E. coli J3272 Tet D) [µg/mL] | MIC (S. aureus SMITH (MP)) [µg/mL] | MIC (S. aureus UBMS 88-4) [µg/mL] | further results |
| --- | --- | --- | --- | --- | --- | --- | --- | --- | --- | --- | --- | --- | --- | --- | --- | --- | --- | --- | --- | --- | --- |
| CC(C(=O)Nc1ccc2c(c1O)C(=O)C1=C(O)[C@]3(O)C(=O)C(C(N)=O)=C(O)[C@@H](N(C)C)C3CC1C2)N1CCCC1 (some centres unmarked) [P] | 0.5 (≈ 0.902 µM) | 0.5 (≈ 0.902 µM) | 1 (≈ 1.8 µM) | 0.25 (≈ 0.451 µM) | 0.5 (≈ 0.902 µM) | 2 (≈ 3.61 µM) | 0.5 (≈ 0.902 µM) | 0.25 (≈ 0.451 µM) | 2 (≈ 3.61 µM) | 8 (≈ 14.4 µM) | 2 (≈ 3.61 µM) | 0.5 (≈ 0.902 µM) | 0.25 (≈ 0.451 µM) | 4 (≈ 7.21 µM) | 1 (≈ 1.8 µM) | 0.5 (≈ 0.902 µM) | 1 (≈ 1.8 µM) | 0.5 (≈ 0.902 µM) | 0.5 (≈ 0.902 µM) | 0.5 (≈ 0.902 µM) | MIC (E. coli #311 (MP)): 1 µg/mL (≈ 1.8 µM); MIC ([2]; Ps. aeruginosa ATCC 27853, read-out: MIC): > 32 µg/mL; MIC (S. aureus IVES 1983): 1 µg/mL (≈ 1.8 µM); MIC (E. faecalis ATCC 29212; E. faecalis ATCC 29212, read-out: MIC): 0.25 µg/mL (≈ 0.451 µM); MIC [4]: 4 µg/mL (≈ 7.21 µM); MIC [8]: 2 µg/mL (≈ 3.61 µM); MIC (E. coli ATCC 25922): 1 µg/mL (≈ 1.8 µM); MIC [9]: 1 µg/mL (≈ 1.8 µM); MIC (Enterococcus 12201; Enterococcus 12201, read-out: MIC): 0.25 µg/mL (≈ 0.451 µM); MIC (E. coli UBMS 90-4 Tet M): 1 µg/mL (≈ 1.8 µM); MIC [10]: 0.5 µg/mL (≈ 0.902 µM); MIC (S. marcescens FPOR 8733): 16 µg/mL (≈ 28.8 µM) |
| CN(C)[C@@H]1C(O)=C(C(N)=O)C(=O)[C@@]2(O)C(O)=C3C(=O)c4c(ccc(NC(=O)CNCc5ccccc5)c4O)CC3CC12 (stereo partly drawn) [J, [4S-(4alpha,12aalpha)]-4-(Dimethylamino)-1,4,4a,5,5a,6,11,12a-octahydro-3,10,12,12a-tetrahydroxy-1,11-dioxo-9-[[[(phenylmethyl)amino]acetyl]amino]-2-naphthacenecarboxamide dihydrochloride] | 2 | 1 | 4 | 0.5 | 1 | 4 | 4 | 0.5 | 4 | 8 | 4 | 2 | 0.5 | 16 | 4 | 1 | 4 | 4 | 0.5 | 1 | MIC (E. coli #311 (MP); E. coli #311 (MP), read-out: MIC): 4 µg/mL; MIC [2]: > 32 µg/mL; MIC (S. aureus IVES 1983; S. aureus IVES 1983, read-out: MIC): 4 µg/mL; MIC (E. faecalis ATCC 29212): 0.25 µg/mL; MIC ([4]; S. hemolyticus AVHAH 88-3, read-out: MIC): 4 µg/mL; MIC (E. coli ATCC 25922; read-out: MIC): 4 µg/mL; MIC (Enterococcus 12201): 2 µg/mL; MIC (E. coli UBMS 90-4 Tet M): 4 µg/mL; MIC [10]: 4 µg/mL; MIC (S. marcescens FPOR 8733; read-out: MIC): > 32 µg/mL |
